What was measured:
[1] = test system: CCRF-CEM; assay: NCI-60 SRB screen; format: cell-based; conditions: Homo sapiens, single dose 10^−5 M, Leukaemia, read-out: Growth inhibition (%)
[2] = test system: HL-60(TB); assay: NCI-60 SRB screen; format: cell-based, human; conditions: Homo sapiens; single dose 10^−5 M; HL-60(TB), Leukaemia; read-out: Growth inhibition (%)
[3] = test system: K-562; assay: NCI-60 SRB screen; format: cell-based, human; conditions: Homo sapiens, K562; single dose 10^−5 M; K-562, Leukaemia; read-out: Growth inhibition (%)
[4] = test system: MOLT-4; assay: NCI-60 SRB screen; format: cell-based; conditions: Homo sapiens; single dose 10^−5 M; MOLT-4, Leukaemia; read-out: Growth inhibition (%)
[5] = test system: SR; assay: NCI-60 SRB screen; format: cell-based; conditions: Homo sapiens, single dose 10^−5 M, Leukaemia, read-out: Growth inhibition (%)
[6] = test system: A549/ATCC; assay: NCI-60 SRB screen; format: cell-based, human; conditions: Homo sapiens, single dose 10^−5 M, Non-small cell lung carcinoma, read-out: Growth inhibition (%)
[7] = test system: EKVX; assay: NCI-60 SRB screen; format: cell-based, human; conditions: Homo sapiens, single dose 10^−5 M, Non-small cell lung carcinoma, read-out: Growth inhibition (%)
[8] = test system: HOP-62; assay: NCI-60 SRB screen; format: cell-based, human; conditions: Homo sapiens; single dose 10^−5 M; HOP-62, Non-small cell lung carcinoma; read-out: Growth inhibition (%)
[9] = test system: NCI-H226; assay: NCI-60 SRB screen; format: cell-based, human; conditions: Homo sapiens; single dose 10^−5 M; NCI-H226, Non-small cell lung carcinoma; read-out: Growth inhibition (%)
[10] = test system: NCI-H23; assay: NCI-60 SRB screen; format: cell-based, human; conditions: Homo sapiens; single dose 10^−5 M; NCI-H23, Non-small cell lung carcinoma; read-out: Growth inhibition (%)
[11] = test system: NCI-H322M; assay: NCI-60 SRB screen; format: cell-based, human; conditions: Homo sapiens, single dose 10^−5 M, Non-small cell lung carcinoma, read-out: Growth inhibition (%)
[12] = test system: NCI-H460; assay: NCI-60 SRB screen; format: cell-based, human; conditions: Homo sapiens; single dose 10^−5 M; NCI-H460, Non-small cell lung carcinoma; read-out: Growth inhibition (%)
[13] = test system: NCI-H522; assay: NCI-60 SRB screen; format: cell-based, human; conditions: Homo sapiens; single dose 10^−5 M; NCI-H522, Non-small cell lung carcinoma; read-out: Growth inhibition (%)
[14] = test system: COLO 205; assay: NCI-60 SRB screen; format: cell-based, human; conditions: Homo sapiens; single dose 10^−5 M; COLO 205, Colon cancer; read-out: Growth inhibition (%)
[15] = test system: HCC-2998; assay: NCI-60 SRB screen; format: cell-based, human; conditions: Homo sapiens; single dose 10^−5 M; HCC-2998, Colon cancer; read-out: Growth inhibition (%)
[16] = test system: HCT-116; assay: NCI-60 SRB screen; format: cell-based, human; conditions: Homo sapiens; single dose 10^−5 M; HCT-116, Colon cancer; read-out: Growth inhibition (%)
[17] = test system: HCT-15; assay: NCI-60 SRB screen; format: cell-based, human; conditions: Homo sapiens; single dose 10^−5 M; HCT-15, Colon cancer; read-out: Growth inhibition (%)
[18] = test system: HT-29; assay: NCI-60 SRB screen; format: cell-based; conditions: Homo sapiens; single dose 10^−5 M; HT-29, Colon cancer; read-out: Growth inhibition (%)
[19] = test system: KM12; assay: NCI-60 SRB screen; format: cell-based, human; conditions: Homo sapiens; single dose 10^−5 M; KM12, Colon cancer; read-out: Growth inhibition (%)
[20] = test system: SW-620; assay: NCI-60 SRB screen; format: cell-based; conditions: Homo sapiens; single dose 10^−5 M; SW-620, Colon cancer; read-out: Growth inhibition (%)
[21] = test system: SF-268; assay: NCI-60 SRB screen; format: cell-based, human; conditions: Homo sapiens; single dose 10^−5 M; SF-268, CNS cancer; read-out: Growth inhibition (%)
[22] = test system: SF-295; assay: NCI-60 SRB screen; format: cell-based, human; conditions: Homo sapiens; single dose 10^−5 M; SF-295, CNS cancer; read-out: Growth inhibition (%)
[23] = test system: LOX IMVI; assay: NCI-60 SRB screen; format: cell-based, human; conditions: Homo sapiens, single dose 10^−5 M, Melanoma, read-out: Growth inhibition (%)
[24] = test system: MALME-3M; assay: NCI-60 SRB screen; format: cell-based, human; conditions: Homo sapiens, single dose 10^−5 M, Melanoma, read-out: Growth inhibition (%)
[25] = test system: M14; assay: NCI-60 SRB screen; format: cell-based, human; conditions: Homo sapiens; single dose 10^−5 M; M14, Melanoma; read-out: Growth inhibition (%)
[26] = test system: MDA-MB-435; assay: NCI-60 SRB screen; format: cell-based; conditions: Homo sapiens, MDA-MB-435, read-out: Growth inhibition (%)
[27] = test system: SK-MEL-2; assay: NCI-60 SRB screen; format: cell-based, human; conditions: Homo sapiens; single dose 10^−5 M; SK-MEL-2, Melanoma; read-out: Growth inhibition (%)
[28] = test system: SK-MEL-28; assay: NCI-60 SRB screen; format: cell-based; conditions: Homo sapiens; single dose 10^−5 M; SK-MEL-28, Melanoma; read-out: Growth inhibition (%)
[29] = test system: SK-MEL-5; assay: NCI-60 SRB screen; format: cell-based, human; conditions: Homo sapiens; single dose 10^−5 M; SK-MEL-5, Melanoma; read-out: Growth inhibition (%)
[30] = test system: UACC-257; assay: NCI-60 SRB screen; format: cell-based, human; conditions: Homo sapiens; single dose 10^−5 M; UACC-257, Melanoma; read-out: Growth inhibition (%)
[31] = test system: UACC-62; assay: NCI-60 SRB screen; format: cell-based, human; conditions: Homo sapiens; single dose 10^−5 M; UACC-62, Melanoma; read-out: Growth inhibition (%)
[32] = test system: IGROV1; assay: NCI-60 SRB screen; format: cell-based, human; conditions: Homo sapiens, IGROV-1; single dose 10^−5 M; IGROV1, Ovarian cancer; read-out: Growth inhibition (%)
[33] = test system: OVCAR-3; assay: NCI-60 SRB screen; format: cell-based, human; conditions: Homo sapiens; single dose 10^−5 M; OVCAR-3, Ovarian cancer; read-out: Growth inhibition (%)
[34] = test system: OVCAR-4; assay: NCI-60 SRB screen; format: cell-based, human; conditions: Homo sapiens; single dose 10^−5 M; OVCAR-4, Ovarian cancer; read-out: Growth inhibition (%)
[35] = test system: OVCAR-8; assay: NCI-60 SRB screen; format: cell-based, human; conditions: Homo sapiens; single dose 10^−5 M; OVCAR-8, Ovarian cancer; read-out: Growth inhibition (%)
[36] = test system: NCI/ADR-RES; assay: NCI-60 SRB screen; format: cell-based, human; conditions: Homo sapiens, single dose 10^−5 M, Ovarian cancer, read-out: Growth inhibition (%)
[37] = test system: SK-OV-3; assay: NCI-60 SRB screen; format: cell-based, human; conditions: Homo sapiens; single dose 10^−5 M; SK-OV-3, Ovarian cancer; read-out: Growth inhibition (%)
[38] = test system: 786-0; assay: NCI-60 SRB screen; format: cell-based; conditions: Homo sapiens; single dose 10^−5 M; 786-0, Renal cancer; read-out: Growth inhibition (%)
[39] = test system: ACHN; assay: NCI-60 SRB screen; format: cell-based; conditions: Homo sapiens, single dose 10^−5 M, Renal cancer, read-out: Growth inhibition (%)
[40] = test system: RXF 393; assay: NCI-60 SRB screen; format: cell-based, human; conditions: Homo sapiens; single dose 10^−5 M; RXF 393, Renal cancer; read-out: Growth inhibition (%)
[41] = test system: SN12C; assay: NCI-60 SRB screen; format: cell-based, human; conditions: Homo sapiens, SN12C; single dose 10^−5 M; SN 12 C, Renal cancer; read-out: Growth inhibition (%)
[42] = test system: TK-10; assay: NCI-60 SRB screen; format: cell-based, human; conditions: Homo sapiens; single dose 10^−5 M; TK-10, Renal cancer; read-out: Growth inhibition (%)
[43] = test system: UO-31; assay: NCI-60 SRB screen; format: cell-based, human; conditions: Homo sapiens; single dose 10^−5 M; UO-31, Renal cancer; read-out: Growth inhibition (%)
[44] = test system: panel of 60 cancer cell lines; assay: NCI-60 SRB screen, mean or range over the panel; format: cell-based, human; conditions: Homo sapiens; mean over the cell lines; single dose 10^−5 M; read-out: Mean growth inhibition (%)

For `N#CC1=C(Cl)NC(c2cccc([N+](=O)[O-])c2)c2sc3c(F)cccc3c21` (centres unmarked) [Compound 7b, 3-Chloro-4-cyano-8-fluoro-1-(3-nitrophenyl)-1,2-dihydro[1]benzothieno [2,3-c]pyridine], the inhibition at 10 µM [1] was 3.22%, the inhibition at 10 µM [2] was 1.47% and the inhibition at 10 µM [3] was 8.8%. The inhibition at 10 µM [4] was 7.93%, the inhibition at 10 µM [5] was 15.9% and the inhibition at 10 µM [6] was -10.1%. It also gave an inhibition at 10 µM [7] of -1.36%, an inhibition at 10 µM [8] of 9.67% and an inhibition at 10 µM [9] of 9.35%. For the same compound, the inhibition at 10 µM [10] was 4.25%, the inhibition at 10 µM [11] was -3.17% and the inhibition at 10 µM [12] was 2.14%. The inhibition at 10 µM [13] was -1.38%, the inhibition at 10 µM [14] was -14.6% and the inhibition at 10 µM [15] was -18.2%. For the same compound, the inhibition at 10 µM [16] was 11.7%, the inhibition at 10 µM [17] was -7.25% and the inhibition at 10 µM [18] was -3.29%. The inhibition at 10 µM [19] was -0.12%, the inhibition at 10 µM [20] was 3.78% and the inhibition at 10 µM [21] was 6.82%. The inhibition at 10 µM [22] was -4.69%, the inhibition at 10 µM [23] was 1.46% and the inhibition at 10 µM [24] was -2.31%. It also gave an inhibition at 10 µM [25] of -5.17%, an inhibition at 10 µM [26] of -8.18% and an inhibition at 10 µM [27] of -2.07%. The inhibition at 10 µM [28] was -11.2%, the inhibition at 10 µM [29] was -20.1% and the inhibition at 10 µM [30] was -9.77%. It also gave an inhibition at 10 µM [31] of 8.84%, an inhibition at 10 µM [32] of 15.6% and an inhibition at 10 µM [33] of -1.67%. The inhibition at 10 µM [34] was -3.81%, the inhibition at 10 µM [35] was -4.49% and the inhibition at 10 µM [36] was 1.73%. For the same compound, the inhibition at 10 µM [37] was 2.24%, the inhibition at 10 µM [38] was -13.5% and the inhibition at 10 µM [39] was 4.44%. The inhibition at 10 µM [40] was -15.8%, the inhibition at 10 µM [41] was 4.43% and the inhibition at 10 µM [42] was -53.8%. It also gave an inhibition at 10 µM [43] of 32.5% and an inhibition at 10 µM [44] of 2.14%.
